Patent US20240041898A9, “NEUROSTEROIDS AND ENANTIOMERS THEREOF FOR THE PREVENTION AND TREATMENT OF NEURODEGENERATIVE CONDITIONS” (priority 2019, published 2024)
Like-named read-outs stand apart in the source and are kept apart here.

Assays:
[1] = tested on: pressure-loaded ex vivo rat retinas; assay type: cell-based; conditions: for retinal morphology with 3-MA alone: 10 mM
Experimental: (§1) Rat ex vivo Eyecup Preparation—Rat ex vivo eyecups were prepared from 28-32 day old male Sprague-Dawley rats (Charles River Laboratories International Inc., Wilmington, MA). The anterior half of the enucleated eyes was carefully removed to make eyecup preparations. Eyecups were placed at the bottom of a 100 ml glass beaker filled with aCSF (artificial cerebrospinal fluid) containing (in mM): 124 NaCl, 5 KCl, 2 MgSO4, 2 CaCl2, 1.25 NaH2PO4, 22 NaHCO3, and 10 glucose, and incubated at 30° C. for 24 hours using a closed pressure-loading system (FIG. 1C). pH was maintained at 7.35 to 7.40. In the closed-pressure system, a glass beaker with the eyecup was placed at the bottom of an acrylic pressure chamber (2,000 ml volume). A 95% O2-5% CO2 gas mixture was delivered through disposable plastic tubing with an infusion valve and a control dial on the lid of the pressure chamber and an air filter (Cat #SLGP033RS, Merck Millipore, Billerica, MA). The plastic tubing delivering the gas terminated 1 cm above the bottom of the beaker.
(§2) Acutely prepared eyecups were incubated in gassed aCSF for at least 1 h at 30° C. before pressure loading. In some experiments, AlloP (1 μM), ent-AlloP (1 μM), and 3-MA (10 mM) were dissolved in aCSF at the time of experiment and administered by bath perfusion. Eyecup preparations were treated with these drugs for 1 h at 30° C. before pressure loading. For pressure loading, the 95% O2-5% CO2 gas mixture was infused until the pressure reading given by a manometer reached the appropriate level. The pressure was then locked by adjusting the control dial of the effusion valve, and monitored continuously for 24 h at 30° C.
Data analysis of morphometry—The middle portion of the retina was examined, greater than 1,200 μm away from the center of the optic disc along the inner limiting membrane (ILM). The nerve fiber layer thickness (NFLT) was measured by light microscopy along 5 lines perpendicular to the pigment epithelium at a distance of 15 μm from each other around 1,200 μm away from the center of the optic disc. The average NFLT was determined in 9 different light micrographs taken from 5 eyecup samples in each condition, divided by total retinal thickness, and mean±standard deviation (%) was analyzed and compared with control.
The density of degenerated cells characterized by nuclear chromatin clumping or necrosis in the GCL was determined by counting 9 fields of 500 μm length in light micrographs taken from the block of the middle retinal part 950 to 1450 μm away from the center of the optic disc.
The severity of neuronal damage was assessed by light microscopy using a neuronal damage score (NDS). The NDS was determined in 9 different light micrographs taken from 5 eyecup samples in each condition. The NDS rates neuronal damage in the inner nuclear layer (INL) and the inner plexiform layer (IPL) on a 0-4 scale with 0 signifying no neuronal damage and 4 indicating very severe damage. Criteria used in establishing the degree of neuronal damage included the extent of cytoplasmic swelling in the IPL and the number of neurons in the INL showing signs of severe cytoplasmic swelling and coarse clumping of nuclear chromatin. The highest NDS rating (4) is given when the IPL discloses apparent spongiform appearance due to dendritic swelling and when most cell bodies in the INL show severe cytoplasmic swelling and coarse clumping of nuclear chromatin. If the damage is of a lesser degree, a rating of 3 is given. NDS 2 is assigned when cell bodies in the INL are sporadically swollen. […] Fine dendritic swelling in a limited area of the IPL without damage in the INL is described by NDS 1.
NFLT, density of degenerated cells in the GCL, and NDS were determined as the measurement of 10 different areas from three eyes per experimental condition. These morphometrical parameters were assessed by three raters, who remained unaware of the experimental condition. […]

LC3-II = experiment: Ex vivo pressure-loaded retinas, Western blot of LC3-II; assay type: cell-based, rat; conditions: 10 mM 3-MA, 1 μM ent-AlloP, 75 mmHg
Experimental: as §1, §2
(§3) Western Blot Analysis—At the end of each experiment, the posterior segments of the eye were placed on a flat cutting surface and immersed in ice-cold aCSF. With a surgical blade, the retina was carefully and gently detached from the sclera with a fine forceps. The isolated retinas were frozen at −80° C. Retinas were then homogenized in lysis buffer solution (CelLytic MT; Sigma-Aldrich, Inc.) with protease inhibitor cocktail (Sigma-Aldrich, Inc.), prepared according to the manufacturer's instructions. The tissue extracts were ultrasonicated and clarified by centrifugation at 12,000 g for 20 minutes at 4° C. The protein concentrations in supernatants were assayed (Quant-iT assay kit; Invitrogen Corp., Carlsbad, CA). Twenty micrograms of retinal extract were subjected to SDS polyacrylamide gel electrophoretic analysis. The proteins were then transferred to a PVDF. Immunoblots by polyclonal rabbit anti-LC3B antibody (MBL Life Science) or anti-SQSTMl/p62 mouse monoclonal antibody (Abcam) were visualized using WesternBreeze Chemiluminescent Immunodetection system (Invitrogen) with the exposure time to autoradiograph film (MXJB Plus; Kodak, Rochester, NY) adjusted to avoid over- or undersaturation. Precision Plus Protein™ Western Standards (Bio-Rad, Hercules, CA) followed by Precision Protein™ strep Tactin-AP conjugate (Bio-Rad) was used for a molecular marker of LC3. MagicMark™ XP Western Protein Standard (Invitrogen, Carlsbad, CA) was used for a molecular marker of p62. Immunoblot data are normalized to β-actin levels in the same sample.
(§4) The density of Western blot bands was quantified using Image-Pro Plus software. Quantification was adjusted to protein expression at 10 mmHg after normalization to the β-actin band at each pressure, and the relative gray-scale value was calculated by densitometric analysis of the obtained bands. At least four independent experiments were performed for each condition, and the results are presented as relative units numerically. Differences in expression levels were evaluated using Wilcoxon Rank-Sum Test, Tukey's or Dunnett's multiple comparison test. Sample numbers were four to five per each experimental condition.

p62 = experiment: Ex vivo pressure-loaded retinas, Western blot of p62; assay type: cell-based, rat; conditions: 10 mM 3-MA, 1 μM ent-AlloP, 75 mmHg
Experimental: as §1, §2
as §3, with “MagicMark™ XP Western Protein Standard (Invitrogen, Carlsbad, CA) was used for a molecular marker of p62. Immunoblot data are normalized to β-actin levels in the same sample.” left out
as §4, with “At least four independent experiments were performed for each condition, and the results are presented as relative units numerically.” left out, “Sample numbers were four to five per each experimental condition.” left out

Compound | effect of 3-MA on neuroprotection by AlloP ([1]; 10 mM 3-MA + 1 μM AlloP, 75 mmHg) | effect of 3-MA on the effects of ent-AlloP ([1]; 10 mM 3-MA + 1 μM ent-AlloP, 75 mmHg) | retinal morphology with 3-MA alone ([1]; 10 mmHg) | retinal morphology with 3-MA alone ([1]; 75 mmHg) | effect of 3-MA on upregulation of LC3-II levels induced by ent-AlloP (LC3-II) | effect of 3-MA on the decrease of p62 levels induced by ent-AlloP (p62) | effect of picrotoxin on the neuroprotective effect of AlloP ([1]; 1 μM picrotoxin + 1 μM AlloP, hyperbaric conditions (75 mmHg)) | effect of picrotoxin on the effects of ent-AlloP ([1]; 1 μM picrotoxin + 1 μM ent-AlloP, 75 mmHg)
Cn1cnc(N)c2ncnc1-2 [3-MA, 3-methyladenine] | did not alter neuroprotection by AlloP | dampened the effects of ent-AlloP | neurodegenerative | neurodegenerative | dampened | reversed | – | –
picrotoxin | – | – | – | – | – | – | overcame the neuroprotective effect of AlloP | did not alter the effects of ent-AlloP
